A word on the EC50: it is the concentration at which the effect is half-maximal. Low readings indicate an effect from little substance, high ones a need for much substance.

The subject of one test is HT-1080 cells. Kind of test: HT-1080 cell viability assay (ferroptosis induced by RSL3, Cell Titer-Glo). Type of test: cell-based. The conditions noted are these: Homo sapiens, HT-1080, 20 h, ferroptosis inducer RSL3, 20 hours, ferroptosis inhibitory activity, Table 2. Put shortly:
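EC50 fitted by sigmoidal dose-response regression on luminescent viability data normalized to untreated cells. Compounds ran as a 10-point, 3-fold series from 1.1 μM alongside RSL3 for 20 hours, after overnight seeding.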
`CC1(C)CCC(c2ccc(NC3CCC(CN)CC3)cc2)CC1` (centres unmarked) [Compound 78, N-(4-(aminomethyl)cyclohexyl)-4-(4,4-dimethylcyclohexyl)aniline] had an EC50 of 0.1 to 100 nM.
With `Cc1cc(NC2CCC(N)CC2)cc(C)c1C` (single isomer, unassigned) [Compound 182A, N1-(3,4,5-trimethylphenyl)cyclohexane-1,4-diamine], the EC50 fell in the range of 100 to 1000 nM.
Same read-out and setting: next, `NC1CCC(Nc2ccc(C3CCC(F)(F)CC3)cc2)CC1` (centres unmarked) [Compound 251A, N1-(4-(4.4-difluorocyclohexyl)phenyl)cyclohexane-1,4-diamine]: 0.1 to 100 nM; `CC(C)(C)c1ccc(NC2CCC(CN)CC2)cc1` (centres unmarked) [Compound 96, N-(4-(aminomethyl)cyclohexyl)-4-(tert-butyl)aniline]: 0.1 to 100 nM.
Consider `CC(C)(CN)Nc1ccc(C(C)(C)C)cc1` [Compound 229], for which the EC50 lay within 1000 to 10000 nM.
As for `CC1(C)CCC(c2ccc(NC3CCC(NC(=O)[C@H]4CNC(=O)N4)C3)cc2)CC1` (mixture of isomers) [Compound 155], the EC50 is 0.1 to 100 nM.
As for `Cc1cc(N2CC(C)OC(C)C2)c(F)cc1NC[C@H]1CC[C@H](N)CC1` (some centres unmarked) [Compound 432, N-(((1r,4r)-4-aminocyclohexyl)methyl)-4-(2,6-dimethylmorpholino)-5-fluoro-2-methylaniline], the EC50 was 0.1 to 100 nM.
The compound `CC1(C)CCC(c2ccc(NC3CCC(CO)CC3)cc2)CC1` (centres unmarked) [Compound 90] had an EC50 of 0.1 to 100 nM.
`NC1CCC(Nc2ccc(C3CCOCC3)cc2)CC1` (centres unmarked) [Compound 170, 1-N-(4-(tetrahydro-2H-pyran-+-yl)phenyl)cyclohexane-1,4-diamine] displayed a half-maximal effective concentration (EC50) of 1000 to 10000 nM.
As for `CC(C)(C)c1ccc(NC2CCC(NC(=O)[C@H]3CNC(=O)N3)CC2)cc1` (single isomer, unassigned) [Compound 115A], the EC50 lay within 100 to 1000 nM.
Consider `CC(C)(C)c1ccc(NC2CCc3nc(N)sc3C2)cc1` (centres unmarked) [Compound 204, 4-N-(4-(tert-butyl)phenyl)-4,5,6,7-tetrahydrobenzo[d]thiazole-2,6-diamine], for which the EC50 lay in the range of 100 to 1000 nM.
Compound `NC1CCC(Nc2ccc(F)c(F)c2)CC1` (centres unmarked) [Compound 160, N1-(3,4-difluorophenyl)cyclohexane-1,4-diamine] registered an EC50 of 1000 to 10000 nM.
Turning to `Cc1nc(N2CC3CC(C2)O3)ccc1NC1CC2(CC(N)C2)C1` (centres unmarked) [Compound 524, N2-(6-(6-oxa-3-azabicyclo[3.1.1]heptan-3-yl)-2-methylpyridin-3-yl)spiro[3.3]heptane-2,6-diamine], the EC50 was in the range of 100 to 1000 nM.
In turn, `CC1(C)CCC(c2ccc(NC3CCC(CCNC(=O)[C@H]4CC(=O)NC(=O)N4)CC3)cc2)CC1` (stereo partly drawn) [Compound 244A, (R)—N-(2-(4-((4-(4,4-dimethylcyclohexyl)phenyl)amino)cyclohexyl)ethyl)-2,6-dioxohexahydro pyrimidine-4-carboxamide] displayed an EC50 of 0.1 to 100 nM.
The same measure, in the same setting: the figure for `NC1CC(Nc2ccc(C3CCCCC3)cc2)C1` (centres unmarked) [Compound 132, N1-(4-cyclohexylphenyl)cyclobutane-1,3-diamine] is 0.1 to 100 nM; for `O=C(O)C1CCC(Nc2ccc(N3CCC(C(F)(F)F)CC3)cc2)CC1` (centres unmarked) [Compound 9, 4-((4-(4-(trifluoromethyl)piperidin-1-yl)phenyl)amino)cyclohexane-1-carboxylic acid] it is 1000 to 10000 nM; for `C[C@@H](O)[C@H](N)C(=O)NC1CCC(Nc2ccc(C(C)(C)C)cc2)CC1` (stereo partly drawn) [Compound 214, (2S, 3R)-2-amino-N-(4-((4-(tert-butyl)phenyl)amino)cyclohexyl)-3-hydroxybutanamide] it is 0.1 to 100 nM.
As to `NCC1CCC(Nc2ccc3c(c2)CCCC3)CC1` (centres unmarked) [Compound 286, N-(4-(aminomethyl)cyclohexyl)-5,6,7,8-tetrahydronaphthalen-2-amine], the EC50 lay in the range of 0.1 to 100 nM.
Compound `CCC1CCN(c2ccc(NC[C@H]3CC[C@H](N)CC3)c(C)c2)CC1` [Compound 389, N-(((1r,4r)-4-aminocyclohexyl)methyl)-4-(4-ethylpiperidin-1-yl)-2-methylaniline] returned a concentration giving a half-maximal response (EC50) of 0.1 to 100 nM.
On the same count and under the same terms, next, `Cc1nc(N2CCOC(C)C2)ccc1NC1C2CC3CC1CC(CN)(C3)C2` (centres unmarked) [Compound 520, N-(5-(aminomethyl)adamantan-2-yl)-2-methyl-6-(2-methylmorpholino)pyridin-3-amine]: 0.1 to 100 nM.
Still for that read-out and setting: next, `Cc1nc(N(C)CC(F)(F)F)ccc1NC1CC2(CC(N)C2)C1` (centres unmarked) [Compound 558, N^5-(6-aminospiro [3.3]heptan-2-yl)-N2,6-dimethyl-N2-(2,2,2-trifluoroethyl)pyridine-2,5-diamine]: 0.1 to 100 nM.
For `CC(C)(CN1CCCC1)Nc1ccc(C(C)(C)C)cc1` [Compound 227, 4-(tert-butyl)-N-(2-methyl-1-(pyrrolidin-1-yl)propan-2-yl)aniline], the EC50 is 1000 to 10000 nM.
The compound `Cc1nc(N2CC(C)OC(C)C2)ccc1NCC1CC2(CC(N)C2)C1` (centres unmarked) [Compound 512, N-((6-aminospiro [3.3]heptan-2-yl)methyl)-6-(2,6-dimethylmorpholino)-2-methylpyridin-3-amine] yielded an EC50 of 0.1 to 100 nM.
For `Cc1nc(N2CC(C)OC(C)(C)C2)ccc1NC1CC2(CC(N)C2)C1` (centres unmarked) [Compound 185, N2-(2-methyl-6-(2,2,6-trimethylmorpholino)pyridin-3-yl)spiro[3.3]heptane-2,6-diamine], the EC50 was 1000 to 10000 nM.
Regarding `CCC(C)(C)c1ccc(NC2CC(N)C2)cc1` (centres unmarked) [Compound 273, N1-(4-(tert-pentyl)phenyl)cyclobutane-1,3-diamine], the EC50 lay in the range of 0.1 to 100 nM.
In the case of `CC1(C)CCC(c2ccc(NC3CCC(N)(CO)CC3)cc2)CC1` (centres unmarked) [Compound 275A], the EC50 is 0.1 to 100 nM.
In turn, `NC1CCC(Nc2ccc3ccccc3c2)CC1` (centres unmarked) [Compound 221, N1-(naphthalen-2-yl)cyclohexane-1,4-diamine] showed an EC50 of 0.1 to 100 nM.
The compound `CC1CN(c2cc(F)c(NC[C@H]3CC[C@H](N)CC3)cc2F)CC(C)O1` (some centres unmarked) [Compound 481, N-(((1r,4r)-4-aminocyclohexyl)methyl)-4-(2,6-dimethylmorpholino)-2,5-difluoroaniline] gave an EC50 of 100 to 1000 nM.
Take `CC1CN(c2ccc(NC[C@H]3CC[C@H](N)CC3)cc2C#N)CC(C)O1` (some centres unmarked) [Compound 468, 5-((((1r,4r)-4-aminocyclohexyl)methyl)amino)-2-(2,6-dimethylmorpholino)-benzonitrile]: the EC50 fell in the range of 0.1 to 100 nM.
In turn, `CC(C)(C)c1ccc(NC2CCC(CNCCO)CC2)cc1` (centres unmarked) [Compound 322, 2-(((4-((4-(tert-butyl)phenyl)amino)cyclohexyl)methyl)amino)ethan-1-ol] displayed an EC50 of 0.1 to 100 nM.
On to `CCCCCCOc1cc(NC2CCC(N)CC2)ccc1C(C)(C)C` (centres unmarked) [Compound 271, N1-(4-(tert-butyl)-3-(hexyloxy)phenyl)cyclohexane-1,4-diamine], for which the EC50 lay in the range of 0.1 to 100 nM.
The same measure, in the same setting: next, `CC(C)C1CCN(c2ncc(NC3C[C@H]4CC(N)C[C@H]4C3)cn2)CC1` (stereo partly drawn) [Compound 362, (3aR, 6aS)-N2-(2-(4-isopropylpiperidin-1-yl)pyrimidin-5-yl) octahydropentalene-2,5-diamine]: 0.1 to 100 nM; `NC1CCC(Nc2ncc(N3CCC(C(F)(F)F)CC3)cn2)CC1` (single isomer, unassigned) [Compound 64A]: 1000 to 10000 nM.
`Cc1cc(N2CC(C)OC(C)C2)ccc1NC1CC2(CC(N)C2)C1` (centres unmarked) [Compound 463, N2-(4-(2,6-dimethylmorpholino)-2-methylphenyl)spiro[3.3]heptane-2,6-diamine]: the EC50 was in the range of 0.1 to 100 nM.

Still in this test, the particulars now being: Homo sapiens, HT-1080, 20 h, ferroptosis inducer RSL3, 20 hours, ferroptosis inhibitory activity, Table 3.
Turning to `Cc1nc(N2CC(C)OC(C(F)(F)F)C2)ccc1NC[C@H]1CC[C@@H](N)CC1` (some centres unmarked) [Compound 598, N-(((1s,4s)-4-aminocyclohexyl)methyl)-2-methyl-6-(2-methyl-6-(trifluoromethyl)morpholino)pyridin-3-amine], the concentration for a half-maximal effect (EC50) is 0.1 to 100 nM.
`Cc1nc(N2CC(C)N(CC(F)(F)F)C(C)C2)ccc1NC1CC(N)C1` (centres unmarked) [Compound 619] had an EC50 of 0.1 to 100 nM.
Still for that read-out and setting: the figure for `Cc1nc(N2CC[Si](C)(C)CC2)ccc1NC1CC2(CC(O)C2)C1` (centres unmarked) [Compound 625, 6-((6-(4,4-dimethyl-1,4-azasilinan-1-yl)-2-methylpyridin-3-yl)amino)spiro[3.3]heptan-2-ol] is 0.1 to 100 nM; for `CCCc1nc(N2C[C@@H](C)O[C@@H](C)C2)ccc1NC1CC2(CC(N)C2)C1` (stereo partly drawn) [Compound 609, N2-(6-((2S, 6R)-2,6-dimethylmorpholino)-2-propylpyridin-3-yl)spiro[3.3]heptane-2,6-diamine] it is 0.1 to 100 nM; for `Cc1nc(N2CCN(C(=O)C(F)(F)F)C(C)C2)ccc1NC1CC2(CC(N)C2)C1` (centres unmarked) [Compound 611, 1-(4-(5-((6-aminospiro[3.3]heptan-2-yl)amino)-6-methylpyridin-2-yl)-2-methylpiperazin-1-yl)-2,2,2-trifluoroethan-1-one] it is 0.1 to 100 nM.

The test is the same for the next values; noted with them: Homo sapiens, ferroptosis inducer RSL3, 20 hours, ferroptosis inhibitory activity, Table 2.
In the case of `NC1CCC(Nc2ccc3cc(N4CCC(C(F)(F)F)CC4)ccc3c2)CC1` (centres unmarked) [Compound 561, N1-(6-(4-(trifluoromethyl)piperidin-1-yl)naphthalen-2-yl)cyclohexane-1,4-diamine], the EC50 is 0.1 to 100 nM.

The same test, now with this note: ferroptosis inducer RSL3, 20 hours, ferroptosis inhibitory activity, Table 2.
On to `NCC1CCC(Nc2ccccc2)CC1` (single isomer, unassigned) [Compound 92B, N-(4-(aminomethyl)cyclohexyl)aniline], for which the EC50 was 100 to 1000 nM.
`CC1CC(N)CCC1Nc1ccc(C(C)(C)C)cc1` (single isomer, unassigned) [Compound 252A, N1-(4-(tert-butyl)phenyl)-2-methylcyclohexane-1,4-diamine] had an EC50 of 100 to 1000 nM.
Turning to `NC1CCC(Nc2ccc(N3CCCCC3CO)cc2)CC1` (single isomer, unassigned) [Compound 417B, (1-(4-((4-aminocyclohexyl)amino)phenyl)piperidin-2-yl)methanol], the EC50 is 100 to 1000 nM.
On to `CCC(C)(C)c1ccc(NC2CCC(NCCO)CC2)cc1` (single isomer, unassigned) [Compound 295A, 2-((4-((4-(tert-pentyl)phenyl)amino)cyclohexyl)amino)ethan-1-ol], for which the half-maximal effective concentration (EC50) was in the range of 100 to 1000 nM.

The record behind these values is patent publication US20240360114A1 (SIRONAX LTD., priority 2021, published 2024).
